≈ marks a conversion by molar mass, not a printed value. Where two headings read alike, the source gives them in different places.

The subject of data set [1] is M. tuberculosis H37Rv. The data set is described as follows: MIC, microplate-based Alamar Blue assay. The format is cell-based, Mycobacterium tuberculosis. In general terms: Resazurin is reduced to fluorescent resorufin, in cell work by metabolically active cells.
Data set [2] has as its system FAS-II pathway in M. tuberculosis H37Rv. The format is cell-based, Mycobacterium tuberculosis.
The subject of data set [3] is M. tuberculosis strain fgd1∷tn. The data set is described as follows: MIC versus F420H2 deficient strain fgd1∷tn. Type of data set: cell-based, Mycobacterium tuberculosis.
The test system of a further data set is M. tuberculosis. The data set is described as follows: Minimum bactericidal concentration. Type of data set: cell-based, Mycobacterium tuberculosis.
Data set [4] deals with M. tuberculosis H37Rv. In words: Griess assay for NO• quantification, H37Rv. Type of data set: cell-based, Mycobacterium tuberculosis. The conditions noted are these: 20 μM compound, 5 d exposure, lower limit of quantification 0.80 μM NO2−. In general terms: The Griess reaction detects nitrite, a stable product of nitric oxide.
A further data set has as its system M. tuberculosis fgd1∷tn. In words: Griess assay for NO• quantification, fgd1∷tn. Type of data set: cell-based, Mycobacterium tuberculosis. The conditions noted are these: 20 μM compound, lower limit of quantification 0.80 μM NO2−.
For data set [5], the system named is 100 day-old cultures of M. tuberculosis H37Rv. Type of data set: cell-based, Mycobacterium tuberculosis.
Data set [6] is described as follows: Mouse liver microsomal stability. Type of data set: in vitro ADME. Conditions: liver microsomes, pH 7.4. In general terms: Liver microsomes are vesicles of endoplasmic reticulum, rich in cytochrome P450 enzymes.
The target in a further data set is purified InhA (Mycobacterium tuberculosis, UniProt P9WGR1). In words: biochemical. Set-up: species or system M. tuberculosis.
Sequence of purified InhA (P9WGR1 whole entry, looked up): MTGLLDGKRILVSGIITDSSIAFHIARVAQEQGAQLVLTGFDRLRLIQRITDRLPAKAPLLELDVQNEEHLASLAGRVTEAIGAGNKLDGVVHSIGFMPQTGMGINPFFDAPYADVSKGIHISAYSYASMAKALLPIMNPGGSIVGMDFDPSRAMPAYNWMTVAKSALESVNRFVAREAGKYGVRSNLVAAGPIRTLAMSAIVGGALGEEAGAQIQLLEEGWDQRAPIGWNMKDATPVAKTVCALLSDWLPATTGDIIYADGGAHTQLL
In data set [7] the test system is M. tuberculosis H37Rv. The conditions noted are these: cited from earlier work.
For data set [8] the following is noted: for T>MIC: single 25 mg/kg po dose.
A further data set can be described thus: in vivo. Conditions: female, mouse; for Vd / clearance / half-life: iv, 5 mg/kg.
The conditions of data set [9]: ref Inoyama et al., 2018; cited from earlier work.
A short description of data set [10]: Kinetic aqueous solubility. Type of data set: physicochemical. Conditions: universal aqueous buffer, pH 7.4.
A further data set has as its system E. faecium. In words: MIC versus ESKAPE bacteria: E. faecium. Conditions: Enterococcus faecium. Type of data set: cell-based.
The subject of another data set is P aeruginosa. The data set is described as follows: MIC versus ESKAPE bacteria: P aeruginosa. Type of data set: cell-based.
A further data set deals with E. cloacae. In words: MIC versus ESKAPE bacteria: E. cloacae. Conditions: Enterobacter cloacae. Type of data set: cell-based.
Data set [11] is described as follows: Human liver microsomal stability. The format is in vitro ADME. Conditions: liver microsomes, pH 7.4.
Another data set is described as follows: Mouse plasma stability. The conditions noted are these: after 5 h incubation. The format is in vitro ADME.
Data set [12] relates to human cytochrome P450 isoforms. The format is in vitro ADME.
Data set [13] relates to M. tuberculosis H37Rv. Type of data set: in vivo. The conditions noted are these: 60 and 200 mg/kg oral daily, after 4 weeks of dosing, Balb/c mice.
A short description of data set [14]: Vero cell-based cytotoxicity. Conditions: African green monkey, Vero cells.
A short description of data set [15]: Dose proportionality and tolerability in mice. Conditions: single dose 300 mg/kg.
Data set [16] in a line: Chemical stability, degradation to aminotriazine. Conditions: C-N bond cleavage to aminotriazine JSF-3226, light-dependent.
[17] abbreviates: Mycobacterium tuberculosis, H37RV.

In the data set with M. tuberculosis H37Rv [1] (setting [17]), `NNC(=O)c1ccncc1` [INH, reference compound] had an MIC of 0.16 µM (≈ 0.0219 µg/mL). Moreover, the “FAMEs and MAMEs profile by TLC” value in [2] is listed as “reduction of mycolic acids”.
On to `O=[N+]([O-])c1ccc(/C=N/Nc2nc(Nc3ccccc3)nc(Nc3ccccc3)n2)o1` [JSF-2019, (E)-6-(2-((5-nitrofuran-2-yl)methylene)hydrazinyl)-N2,N4-diphenyl-1,3,5-triazine-2,4-diamine], for which, in the data set with M. tuberculosis H37Rv [1] (setting [17]), it took 0.078 µM (≈ 0.0325 µg/mL) to inhibit growth (MIC). Moreover, the “MIC shift / loss of susceptibility, fgd1∷tn versus H37Rv” value in [3] stood at 17 fold. Besides, the “MBC (lowest concentration to reduce the bacterial population by 2 log10)” value in the data set on M. tuberculosis is listed as 600 – 1200 nM. The entries for the “NO• release quantified as nitrite” value in the data set on M. tuberculosis H37Rv [4] and in the data set on M. tuberculosis fgd1∷tn were “smaller yet quantifiable NO• release compared to pretomanid” and “not discernible”, respectively. Moreover, in data set [5], the “reduction in colony-forming units (CFUs)” value is on record as roughly 4 log10. The same compound returned a half-life in [6] of 63.6 min. For the same compound, the IC50 is 24 ± 3.6 µM on purified InhA (InhA IC50, in the presence of 1% CMC Tween-20) and 20 ± 2.4 µM on purified InhA (InhA IC50, without added detergent, substrate 2-dodecenoyl-CoA, NADH). In addition, the “FAMEs and MAMEs profile by TLC” value in data set [2] ([…], INH and pretomanid at 10x MIC, JSF-2019 and JSF-2513 1 – 40x MIC) was “accumulation of FAMEs and decrease of MAMEs”. In the data set with M. tuberculosis H37Rv [7] (ref Ekins et al., 2013), the “MIC (minimum concentration to inhibit 90% of bacterial growth)” value is 0.15 µM. In data set [8] (mouse), the “T>MIC” value is 5.0 h. The compound further gave a Kp at 5 h in “in vivo” (25 mg/kg) of 2.6. The compound also registered an AUC in “in vivo” (po, 25 mg/kg) of 1.15 µg·h/mL. Besides, the AUC(0-t) in “in vivo” (po, 25 mg/kg) turned out to be 1.15 µg·h/mL. The compound further came in with a Cmax in “in vivo” (po, 25 mg/kg) of 0.317 µg/mL. The “aqueous solubility S” value in data set [9] is less than 0.060 µM.
In turn, `O=[N+]([O-])c1ccc(/C=N/Nc2nc(N3CCOCC3)nc(N3CCOCC3)n2)o1` [JSF-2189, (E)-4,4'-(6-(2-((5-nitrofuran-2-yl)methylene)hydrazineyl)-1,3,5-triazine-2,4-diyl)dimorpholine] came in with an MIC against M. tuberculosis H37Rv [1] (setting [17]) of 7.8 µM (≈ 3.15 µg/mL). The amount in solution in data set [10] (solubility at 4 h) came to 20.2 µM (≈ 8.17 µg/mL). In data set [6], this compound registered a half-life of 68 min.
The compound `O=[N+]([O-])c1ccc(/C=N/Nc2nc(Nc3ccccc3)nc(N3CCOCC3)n2)o1` [JSF-2513, (E)-4-morpholino-6-(2-((5-nitrofuran-2-yl)methylene)hydrazineyl)-N-phenyl-1,3,5-triazin-2-amine] registered an MIC against M. tuberculosis H37Rv [1] (setting [17]) of 0.63 µM (≈ 0.259 µg/mL). For the same compound, inhibition of growth in the data set with E. faecium (MIC) required 15 µM (≈ 6.16 µg/mL). The MIC against P aeruginosa was greater than 120 µM. The MIC with E. cloacae was greater than 120 µM. Moreover, the “NO• release quantified as nitrite” value in the data set with M. tuberculosis H37Rv [4] is listed as “in a lesser amount than JSF-2019”. The “NO• release quantified as nitrite” value with M. tuberculosis fgd1∷tn is “abolished”. Further, in data set [5], the “reduction in colony-forming units (CFUs)” value was “ca. 7 log10”. Besides, the concentration in solution in data set [10] (solubility at 4 h) was 0.853 µM (≈ 0.35 µg/mL). In data set [11], the half-life was found to be 61.7 min and the microsomal CLint came to 11.2 µL/min/mg. Further, in the data set “Mouse plasma stability”, the “stability in mouse plasma, compound remaining” value is “satisfactory stabilities in mouse plasma”. The “inhibition of human cytochrome P450 isoforms” value in data set [12] was “did not significantly inhibit”. Besides, the “M. tuberculosis CFUs in mouse lungs and spleen versus vehicle” value with M. tuberculosis H37Rv [13] was “failed to demonstrate a reduction in M. tuberculosis CFUs”. The same compound gave an IC50 against purified InhA (InhA IC50) greater than 150 µM. The “FAMEs and MAMEs profile by TLC” value in data set [2] is “depletion of MAMEs and accumulation of precursor FAMEs”. The “level in the mouse lungs” value in [8] (5 h post a single 25 mg/kg dose, limit of quantification 25 ng/mL) was “near the limit of quantification”. Moreover, in data set [8] (mouse), the “Clung/Cplasma at 5 h” value is “BLQ” and the “T>MIC” value fell in the range of 8 to 24 h. Besides, in the data set “in vivo”, the Vd turned out to be 1.38 L/kg, the clearance is 2.23 L/h/kg and the half-life is 25.8 min. In the data set “in vivo” (po, 25 mg/kg), this compound gave an AUC(0-t) of 12 µg·h/mL, a Cmax of 1.71 µg/mL and a bioavailability of no less than 99%. In [14], this compound came in with a CC50 of 3.9 µM. Further, in [15], the tolerability in mice result is reported as “lethargy”.
In the case of `O=[N+]([O-])c1ccc(/C=N/Nc2nc(N3CCC3)nc(N3CCOCC3)n2)o1` [JSF-2619, (E)-4-(4-(azetidin-1-yl)-6-(2-((5-nitrofuran-2-yl)methylene)hydrazineyl)-1,3,5-triazin-2-yl)morpholine], the “stability in mouse plasma, compound remaining” value in “Mouse plasma stability” is “satisfactory stabilities in mouse plasma”. For the same compound, the “T>MIC” value in [8] (mouse) fell in the range of 3 to 5 h. The Kp at 5 h in the data set “in vivo” (25 mg/kg) was found to be 0.23. Also, in the data set “in vivo”, the Vd is 1.91 L/kg, the clearance was 3.7 L/h/kg and the half-life is 21.6 min. In “in vivo” (po, 25 mg/kg), this compound showed an AUC(0-t) of 7.64 µg·h/mL, a Cmax of 4.2 µg/mL and a bioavailability of 49.2%.
As for `CC1(Nc2nc(N/N=C/c3ccc([N+](=O)[O-])o3)nc(N3CCOCC3)n2)CC1` [JSF-2625, (E)-N-(1-methylcyclopropyl)-4-morpholino-6-(2-((5-nitrofuran-2-yl)methylene)hydrazineyl)-1,3,5-triazin-2-amine], the MIC with M. tuberculosis H37Rv [1] (setting [17]) came to 0.25 µM (≈ 0.0971 µg/mL). The compound also had a solubility at 4 h in data set [10] of 8.71 µM (≈ 3.38 µg/mL). The compound also had a half-life in data set [6] of 56.4 min. For the same compound, the “T>MIC” value in [8] (mouse) is 1 to 3 h. The Kp at 5 h in the data set “in vivo” (25 mg/kg) amounted to 0.3. In addition, in the data set “in vivo”, the Vd was 1.44 L/kg, the clearance was 5.28 L/h/kg and the half-life was 11.4 min. In the data set “in vivo” (po, 25 mg/kg), this compound had an AUC(0-t) of 0.538 µg·h/mL, a Cmax of 0.266 µg/mL and a bioavailability of 11.4%. In data set [16], the “stability in mouse plasma, aqueous DMSO, or aqueous CH3CN” value is “found to degrade”.
Regarding `O=[N+]([O-])c1cn2c(n1)OC[C@@H](OCc1ccc(OC(F)(F)F)cc1)C2` [Pretomanid, reference compound], the MIC against M. tuberculosis H37Rv [1] (H37Rv) worked out at 0.078 µM (≈ 0.028 µg/mL); against M. tuberculosis H37Rv [1] (setting [17]), 0.039 µM (≈ 0.014 µg/mL). Besides, in [5], the “reduction in colony-forming units (CFUs)” value amounted to 6 log10. Further, the “FAMEs and MAMEs profile by TLC” value in [2] is on record as “decrease of MAMEs”.
Take `FC(F)(F)Oc1ccc(CO[C@@H]2COc3nccn3C2)cc1` [des-nitro pretomanid, reference compound]: the whole-cell efficacy result in the data set on M. tuberculosis H37Rv [7] (ref Singh et al., 2008) is “lack quantifiable whole-cell efficacy”.

In general, MIC refers to the least concentration at which growth counts as inhibited. Read a low MIC as greater potency. The term half-life denotes the time needed for the level to fall by half in the phase considered. Low readings indicate fast loss, high ones slow loss. In general, IC50 refers to the concentration at which inhibition is half-maximal. One may read the AUC as concentration integrated over time. Read a high AUC as more exposure. In general, AUC(0-t) refers to the area under the concentration-time curve up to a stated or last time point. A higher AUC(0-t) goes with high exposure. The term Cmax denotes the peak of the concentration-time curve. For orientation: solubility means the concentration that dissolves in the medium under given conditions. Low readings indicate little dissolved substance, high ones much dissolved substance. Usually microsomal CLint stands for the rate of metabolic loss divided by the concentration. A lower microsomal CLint goes with greater metabolic stability. As usually defined, the Vd is a proportionality between amount in the body and measured concentration, not a real space. Lower therefore signals confinement near the circulation. As a reminder, the clearance is the volume of plasma or blood freed of the substance per unit of time. The low end stands for a low capacity for elimination, the high end for a high capacity for elimination. As usually defined, the bioavailability is the share of a dose that reaches the circulation, judged against a reference dose that is usually intravenous. A high value points to good availability. A word on the CC50: it is the concentration that lowers cell viability or growth by half. Read a high CC50 as lower toxicity to the cells.
